The values below come from ChEMBL document CHEMBL1926662, “Trace amine-associated receptor 1 is a stereoselective binding site for compounds in the amphetamine class” (Bioorg Med Chem, 2011).

In experiment [1] the target is T1, Trace amine-associated receptor 1 (Homo sapiens, UniProt Q96RJ0).
T1 sequence (Q96RJ0 whole entry): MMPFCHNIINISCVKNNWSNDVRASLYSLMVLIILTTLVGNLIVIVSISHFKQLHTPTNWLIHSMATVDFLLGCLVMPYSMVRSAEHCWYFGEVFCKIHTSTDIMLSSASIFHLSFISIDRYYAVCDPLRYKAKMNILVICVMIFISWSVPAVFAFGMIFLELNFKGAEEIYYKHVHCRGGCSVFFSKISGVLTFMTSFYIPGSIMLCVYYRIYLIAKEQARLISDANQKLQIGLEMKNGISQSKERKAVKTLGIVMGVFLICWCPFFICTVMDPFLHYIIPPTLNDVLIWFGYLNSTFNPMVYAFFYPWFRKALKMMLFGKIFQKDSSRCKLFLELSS
As to the kind of experiment: Activation of C-terminal HA epitope tagged human TAAR1 expressed in RD-HGA16 cells co-expressing Gq protein, Galpha16 by cAMP accumulation assay. It is filed as functional, cell-based.

Experiment [2] addresses T2, Trace amine-associated receptor 1 (Macaca mulatta, UniProt Q8HZ64).
T2 sequence (Q8HZ64 whole entry): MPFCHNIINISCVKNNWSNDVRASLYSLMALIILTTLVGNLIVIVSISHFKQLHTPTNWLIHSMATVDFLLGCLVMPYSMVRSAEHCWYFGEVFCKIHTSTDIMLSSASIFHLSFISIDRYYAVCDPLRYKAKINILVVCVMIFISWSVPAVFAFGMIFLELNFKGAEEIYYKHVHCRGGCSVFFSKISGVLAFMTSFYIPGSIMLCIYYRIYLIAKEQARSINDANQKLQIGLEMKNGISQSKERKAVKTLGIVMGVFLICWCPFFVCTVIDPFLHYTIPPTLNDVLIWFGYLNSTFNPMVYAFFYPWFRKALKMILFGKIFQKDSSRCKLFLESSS
As to the kind of experiment: Activation of rhesus monkey TAAR1 expressed in RD-HGA16 cells co-expressing Gq protein assessed as cAMP accumulation by fluorescence plate reader. It is filed as functional, cell-based.

The target of experiment [3] is T1, Trace amine-associated receptor 1. As to the kind of experiment: Activation of human TAAR1 expressed in Syrian hamster AV12-664 cells co-expressing GalphaS protein assessed as accumulation of cAMP after 30 mins using cAMP XS EA/CL as substrate by luminescence method in presence of RX821002 and alprenolol. The class given is functional, cell-based.
Experiment [4] deals with T3, Trace amine-associated receptor 1 (Rattus norvegicus, UniProt Q923Y9). As to the kind of experiment: Activation of rat TAAR1 expressed in HEK293 cells assessed as accumulation of [3H]cAMP after 1 hr by liquid scintillation counting. It is filed as functional, cell-based.
In experiment [5] the target is T4, Trace amine-associated receptor 1 (Mus musculus, UniProt Q923Y8). As to the kind of experiment: Activation of mouse TAAR1 expressed in human HEK293 cells assessed as accumulation of [3H]cAMP after 1 hr by liquid scintillation counting. It is filed as functional, cell-based.
A short description of another experiment: cells. Particulars: HEK293; call rule not given here.
The target of experiment [6] is T4, Trace amine-associated receptor 1. As to the kind of experiment: Activation of mouse TAAR1 expressed in human HEK293 cells assessed as accumulation of cAMP after 15 mins. The class given is functional, cell-based.
Experiment [7] addresses T1, Trace amine-associated receptor 1. As to the kind of experiment: Activation of human TAAR1 expressed in human HEK293T cells assessed as cAMP accumulation after 10 mins by BRET assay. It is filed as functional, cell-based, HEK-293T.
The target in experiment [8] is T3, Trace amine-associated receptor 1. As to the kind of experiment: Activation of rat TAAR1 expressed in HEK293 cells assessed as accumulation of [3H]cAMP after 1 hr by competitive binding assay. The class given is functional, cell-based.

T3 sequence (Q923Y9 whole entry): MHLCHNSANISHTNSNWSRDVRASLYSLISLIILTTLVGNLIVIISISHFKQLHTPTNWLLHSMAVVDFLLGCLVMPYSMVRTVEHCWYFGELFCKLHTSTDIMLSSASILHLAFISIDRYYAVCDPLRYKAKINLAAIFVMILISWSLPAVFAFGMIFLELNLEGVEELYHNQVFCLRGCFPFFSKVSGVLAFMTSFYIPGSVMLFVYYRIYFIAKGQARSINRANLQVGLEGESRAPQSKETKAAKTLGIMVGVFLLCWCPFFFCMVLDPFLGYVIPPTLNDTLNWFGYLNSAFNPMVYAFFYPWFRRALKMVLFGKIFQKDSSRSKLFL
T4 sequence (Q923Y8 whole entry): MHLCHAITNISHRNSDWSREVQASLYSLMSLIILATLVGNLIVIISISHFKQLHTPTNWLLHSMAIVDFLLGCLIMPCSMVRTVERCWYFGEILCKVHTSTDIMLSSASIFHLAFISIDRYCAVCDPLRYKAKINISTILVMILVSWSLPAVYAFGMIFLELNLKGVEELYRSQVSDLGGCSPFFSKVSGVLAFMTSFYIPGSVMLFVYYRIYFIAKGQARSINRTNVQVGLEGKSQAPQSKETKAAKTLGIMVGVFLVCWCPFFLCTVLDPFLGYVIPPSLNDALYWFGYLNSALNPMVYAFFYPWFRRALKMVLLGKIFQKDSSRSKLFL
Description for cells: Activation of chimeric rat-human expressed in human HEK293 cells assessed as accumulation of [3H]cAMP after 1 hr by liquid scintillation counting

Take `CCc1cc(OC)c(C[C@@H](C)N)cc1OC`: the EC50 result in [1] (rd-hga16) and in experiment [2] (rd-hga16) was “Not Active” throughout.
For the compound `COc1cc(C[C@H](C)N)c(OC)cc1Br`, the results for the EC50 in [1] (read-out: EC50) and in experiment [2] (read-out: EC50) were 15300 nM and 2140 nM, respectively.
The like results for `C[C@H](N)Cc1ccc2c(c1)OCO2` were, in that order, 6570 nM and 1350 nM.
Regarding `NCCc1ccc(Oc2ccc(O)cc2)c(I)c1`, in experiment [3], the EC50 was 1510 nM.
In the case of `C[C@H](N)Cc1ccc(O)cc1` [(S)-P-HYDROXYAMPHETAMINE], the EC50 was 2960 nM in experiment [1] (read-out: EC50); 101 nM in experiment [2] (read-out: EC50); 190 nM in [4]; 280 nM in experiment [5]; above 5420 nM in the experiment “cells”.
On to `NCCc1ccccc1` [PHENETHYLAMINE], for which the EC50 in experiment [3] worked out at 106 nM.
Turning to `COc1cccc(C[C@@H](C)N)c1`, the EC50 is 6500 nM in experiment [1] (read-out: EC50) and “Not Active” in experiment [2] (rd-hga16).
`C[C@@H](N)Cc1ccc(O)cc1`: the EC50 in experiment [1] (read-out: EC50) was 3160 nM; in experiment [2] (read-out: EC50) it was 424 nM; in [4] it was 60 nM; in [5], 5650 nM; in the experiment “cells”, above 8540 nM.
Consider `CN[C@@H](C)Cc1ccccc1` [METHAMPHETAMINE], for which the EC50 came out at 1500 nM in [1] (read-out: EC50); 5300 nM in [2] (read-out: EC50); 890 nM in experiment [4]; 920 nM in experiment [5]; 70 nM in experiment [6]; 1300 nM in experiment [7]. For the same compound, the EC50 in the experiment “cells” turned out to be 4440 nM.
In the case of `C[C@@H](N)Cc1cccc(C(F)(F)F)c1`, the EC50 result in experiment [1] (rd-hga16) was “Not Active”.
On to `C[C@@H](N)Cc1ccc2c(c1)OCO2`, for which the EC50 is 11700 nM in experiment [1] (read-out: EC50) and 2480 nM in experiment [2] (read-out: EC50).
As for `CNC(C)Cc1ccc2c(c1)OCO2` (racemic) [MIDOMAFETAMINE], the EC50 in [8] is 1700 nM.
In the case of `CC(N)Cc1ccc(O)cc1` (racemic) [HYDROXYAMPHETAMINE], in [8], the EC50 is 50 nM.
Regarding `COc1cc(C[C@H](C)N)c(OC)cc1C`, the EC50 entry is “Not Active” in experiment [1] (rd-hga16) and 900 nM in experiment [2] (read-out: EC50).
For the compound `CCc1cc(OC)c(C[C@H](C)N)cc1OC`, in experiment [2] (rd-hga16), the EC50 entry is recorded as “Not Active”.
On to `COc1cc(C[C@@H](C)N)c(OC)cc1Br`, for which the EC50 was determined as 31900 nM in experiment [1] (read-out: EC50) and 13900 nM in experiment [2] (read-out: EC50).
On to `CN[C@@H](C)Cc1ccc2c(c1)OCO2`, for which, in experiment [2] (read-out: EC50), the EC50 was 16100 nM.
Take `COc1cc(C[C@@H](C)N)c(OC)cc1C`: the EC50 result in experiment [1] (rd-hga16) and in experiment [2] (rd-hga16) was “Not Active” throughout.
With `COc1cccc(C[C@H](C)N)c1` [(S)-M-METHOXYAMPHETAMINE], the figures for the EC50 in experiment [1] (read-out: EC50) and in experiment [2] (read-out: EC50) were 1900 nM and 3300 nM, respectively.
As for `CN[C@H](C)Cc1ccc2c(c1)OCO2`, the EC50 result in experiment [1] (rd-hga16) is “Not Active”; in experiment [2] (read-out: EC50), 7400 nM.
For `CN[C@H](C)Cc1ccccc1`, the EC50 in experiment [1] (read-out: EC50) came out at 3300 nM; in experiment [2] (read-out: EC50), 2500 nM; in experiment [4] it was 1190 nM; in [5] it was 2440 nM; in the experiment “cells” it was 9830 nM.
